Source: the supplement of paper PMC10307832

Legend:
Test in all cases: relative viability (nuclei count vs DMSO), 5 days (fraction); higher = more cells survive
[1] = compound: CN[C@@H]1C[C@H]2O[C@@](C)([C@@H]1OC)n1c3ccccc3c3c4c(c5c6ccccc6n2c5c31)C(=O)NC4 [Staurosporine] + CC(C)C[C@H](NC(=O)[C@H](Cc1ccccc1)NC(=O)c1cnccn1)B(O)O [Bortezomib] (partner 0.002 µM)
Procedure, shortened: (§1)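 Values are medians from duplicate plates. Each reflects relative viability, defined as the nuclei count of treated wells over that of vehicle wells. Lung cancer cell lines in 1536-well plates were pin-tool dosed one day after seeding with one drug alone or with a fixed anchor-drug dose plus five library-drug doses (not always all listed) in √10 steps, then fixed, stained and imaged at 4× after 5 days.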

Sulindac + Lapatinib = compound: CC1=C(CC(=O)O)c2cc(F)ccc2/C1=C\c1ccc([S+](C)[O-])cc1 [Sulindac] + CS(=O)(=O)CCNCc1ccc(-c2ccc3ncnc(Nc4ccc(OCc5cccc(F)c5)c(Cl)c4)c3c2)o1 [Lapatinib] (partner 2 µM)
Procedure, shortened: as §1

Sulindac + Navitoclax = compound: CC1=C(CC(=O)O)c2cc(F)ccc2/C1=C\c1ccc([S+](C)[O-])cc1 [Sulindac] + CC1(C)CCC(c2ccc(Cl)cc2)=C(CN2CCN(c3ccc(C(=O)NS(=O)(=O)c4ccc(N[C@H](CCN5CCOCC5)CSc5ccccc5)c(S(=O)(=O)C(F)(F)F)c4)cc3)CC2)C1 [Navitoclax] (partner 0.5 µM)
Procedure, shortened: as §1

[2] = compound: CN[C@@H]1C[C@H]2O[C@@](C)([C@@H]1OC)n1c3ccccc3c3c4c(c5c6ccccc6n2c5c31)C(=O)NC4 [Staurosporine] + C[C@]1(O)C[C@@H](c2nc(-c3ccc4ccc(-c5ccccc5)nc4c3)c3c(N)nccn32)C1 [Linsitinib] (partner 1 µM)
Procedure, shortened: as §1

| Cell Line | relative viability ([1]; first compound 0.005 µM) | relative viability ([1]; first compound 0.01581 µM) | relative viability ([1]; first compound 0.05 µM) | relative viability ([1]; first compound 0.1581 µM) | relative viability ([1]; first compound 0.5 µM) | relative viability (Sulindac + Lapatinib; first compound 0.08 µM) | relative viability (Sulindac + Lapatinib; first compound 0.253 µM) | relative viability (Sulindac + Lapatinib; first compound 0.8 µM) | relative viability (Sulindac + Lapatinib; first compound 2.53 µM) | relative viability (Sulindac + Lapatinib; first compound 8 µM) | relative viability (Sulindac + Navitoclax; first compound 0.08 µM) | relative viability (Sulindac + Navitoclax; first compound 0.253 µM) | relative viability (Sulindac + Navitoclax; first compound 0.8 µM) | relative viability (Sulindac + Navitoclax; first compound 2.53 µM) | relative viability (Sulindac + Navitoclax; first compound 8 µM) | relative viability ([2]; first compound 0.005 µM) | relative viability ([2]; first compound 0.01581 µM) | relative viability ([2]; first compound 0.05 µM) | relative viability ([2]; first compound 0.1581 µM) | relative viability ([2]; first compound 0.5 µM) |
| --- | --- | --- | --- | --- | --- | --- | --- | --- | --- | --- | --- | --- | --- | --- | --- | --- | --- | --- | --- | --- |
| CAL-12T | 0.343 | 0.227 | 0.233 | 0.244 | 0.186 | 0.697 | 0.64 | 0.583 | 0.545 | 0.806 | 1.67 | 1.35 | 0.969 | 1.38 | 1.42 | 0.57 | 0.334 | 0.213 | 0.136 | 0.115 |
| PC-3 [JPC-3] | 0.866 |  | 0.511 | 0.275 | 0.316 | 0.476 | 0.453 | 0.422 | 0.457 | 0.449 | 0.971 | 0.758 | 0.786 | 0.762 | 0.752 | 0.986 |  | 0.723 | 0.559 | 0.478 |
| NCI-H23 | 0.975 | 0.215 | 0.259 | 0.155 | 0.107 | 1.26 | 1.17 | 0.996 | 0.98 | 1.3 | 0.809 | 0.84 | 0.785 | 0.84 | 0.923 | 0.419 | 0.234 | 0.213 | 0.219 | 0.155 |
| NCI-H838 | 0.289 | 0.0982 | 0.133 | 0.15 | 0.0919 | 1.21 | 1.02 | 0.638 | 0.972 | 1.03 | 1.33 | 1.19 | 1.1 | 1.18 | 1.39 | 0.248 | 0.153 | 0.18 | 0.164 | 0.099 |
| HCC-366 | 1.13 |  | 0.208 | 0.0142 | 0.0141 | 1.19 | 1.13 | 0.765 | 1.06 | 1.49 | 1.32 | 1.19 | 0.817 | 0.957 | 1.18 | 0.623 |  | 0.0843 | 0.0298 | 0.013 |
| NCI-H1666 | 0.638 | 0.468 | 0.493 | 0.29 | 0.189 |  | 0.738 | 0.491 | 0.696 | 0.753 |  | 0.963 | 0.793 | 0.853 | 1.19 | 0.475 | 0.42 | 0.322 | 0.238 | 0.221 |
| HCC-44 | 0.708 | 0.367 | 0.169 | 0.142 | 0.0976 | 1.14 | 1.05 | 0.919 | 1.05 | 1.15 | 1.21 | 1.08 | 0.904 | 1.15 | 1.02 | 0.328 | 0.194 | 0.101 | 0.111 | 0.0981 |
